From the supplement of paper PMC11061612

Key:
[1] = system: SW1417 (Colorectal Carcinoma); assay: combination Emax (second highest fraction inhibited in the dose matrix, 72 h); higher = more inhibition; extreme values may be limits of the assay
In short: (§1)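 After 24 hours at 37°C and 5% CO2 in 1536-well plates, cells in DMEM/F12 or RPMI plus 10% FBS received two-drug dose matrices for 72 hours. Viability came from CellTiter-Glo 2.0 luminescence and was scaled as inhibition, anchored at 0 by vehicle wells and at 1 by blank wells. Combination Emax is taken as the second-highest inhibition in the matrix, and Bliss excess as the observed combination effect less EA + EB − EA·EB, with EA and EB the single-agent effects.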

U251 (Low Grade Glioma) [2] = assay: as above
In short: as §1

[3] = system: TE-6 (Esophageal Squamous Cell Carcinoma); assay: as above
In short: as §1

[4] = system: BL-41 (Burkitt's Lymphoma); assay: as above
In short: as §1

[5] = system: SR (Other Blood Carcinomas); assay: as above
In short: as §1

[6] = system: GR-ST (B-Lymphoblastic Leukemia); assay: as above
In short: as §1

[7] = system: DND-41 (T-Lymphoblastic Leukemia); assay: as above
In short: as §1

WM-115 (Melanoma) [8] = assay: as above
In short: as §1

[9] = system: K-562 (Chronic Myelogenous Leukemia); assay: as above
In short: as §1

TC-71 (Ewing's Sarcoma) [10] = assay: as above
In short: as §1

NCI-H2818 (Mesothelioma) [11] = assay: as above
In short: as §1

[12] = system: SW837 (Colorectal Carcinoma); assay: as above
In short: as §1

[13] = system: BFTC-905 (Bladder Carcinoma); assay: as above
In short: as §1

ES8 (Ewing's Sarcoma) [14] = assay: as above
In short: as §1

[15] = system: L-540 (Hodgkin's Lymphoma); assay: as above
In short: as §1

[16] = system: NCI-H1792 (Lung Adenocarcinoma); assay: as above
In short: as §1

ES1 (Ewing's Sarcoma) [17] = assay: as above
In short: as §1

WIL2-NS (Non-Cancerous) [18] = assay: as above
In short: as §1

[19] = system: CAMA-1 (Breast Carcinoma); assay: as above
In short: as §1

[20] = system: MKN28 (Gastric Carcinoma); assay: as above
In short: as §1

[21] = system: SW1417 (Colorectal Carcinoma); assay: Bliss excess, mean over the matrix (fraction); higher = more synergy
In short: as §1

U251 (Low Grade Glioma) [22] = assay: as above
In short: as §1

[23] = system: TE-6 (Esophageal Squamous Cell Carcinoma); assay: as above
In short: as §1

[24] = system: BL-41 (Burkitt's Lymphoma); assay: as above
In short: as §1

[25] = system: SR (Other Blood Carcinomas); assay: as above
In short: as §1

[26] = system: GR-ST (B-Lymphoblastic Leukemia); assay: as above
In short: as §1

[27] = system: DND-41 (T-Lymphoblastic Leukemia); assay: as above
In short: as §1

WM-115 (Melanoma) [28] = assay: as above
In short: as §1

[29] = system: K-562 (Chronic Myelogenous Leukemia); assay: as above
In short: as §1

TC-71 (Ewing's Sarcoma) [30] = assay: as above
In short: as §1

NCI-H2818 (Mesothelioma) [31] = assay: as above
In short: as §1

[32] = system: SW837 (Colorectal Carcinoma); assay: as above
In short: as §1

[33] = system: BFTC-905 (Bladder Carcinoma); assay: as above
In short: as §1

ES8 (Ewing's Sarcoma) [34] = assay: as above
In short: as §1

[35] = system: L-540 (Hodgkin's Lymphoma); assay: as above
In short: as §1

[36] = system: NCI-H1792 (Lung Adenocarcinoma); assay: as above
In short: as §1

ES1 (Ewing's Sarcoma) [37] = assay: as above
In short: as §1

WIL2-NS (Non-Cancerous) [38] = assay: as above
In short: as §1

[39] = system: CAMA-1 (Breast Carcinoma); assay: as above
In short: as §1

[40] = system: MKN28 (Gastric Carcinoma); assay: as above
In short: as §1
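For Bliss excess, mean over the matrix in this document: after 72 h of two-drug dosing.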

Compound | combination Emax [1] | combination Emax (U251 (Low Grade Glioma) [2]) | combination Emax [3] | combination Emax [4] | combination Emax [5] | combination Emax [6] | combination Emax [7] | combination Emax (WM-115 (Melanoma) [8]) | combination Emax [9] | combination Emax (TC-71 (Ewing's Sarcoma) [10]) | combination Emax (NCI-H2818 (Mesothelioma) [11]) | combination Emax [12] | combination Emax [13] | combination Emax (ES8 (Ewing's Sarcoma) [14]) | combination Emax [15] | combination Emax [16] | combination Emax (ES1 (Ewing's Sarcoma) [17]) | combination Emax (WIL2-NS (Non-Cancerous) [18]) | combination Emax [19] | combination Emax [20] | Bliss excess [21] | Bliss excess (U251 (Low Grade Glioma) [22]) | Bliss excess [23] | Bliss excess [24] | Bliss excess [25] | Bliss excess [26] | Bliss excess [27] | Bliss excess (WM-115 (Melanoma) [28]) | Bliss excess [29] | Bliss excess (TC-71 (Ewing's Sarcoma) [30]) | Bliss excess (NCI-H2818 (Mesothelioma) [31]) | Bliss excess [32] | Bliss excess [33] | Bliss excess (ES8 (Ewing's Sarcoma) [34]) | Bliss excess [35] | Bliss excess [36] | Bliss excess (ES1 (Ewing's Sarcoma) [37]) | Bliss excess (WIL2-NS (Non-Cancerous) [38]) | Bliss excess [39] | Bliss excess [40]
CS(=O)(=O)CCNCc1ccc(-c2ccc3ncnc(Nc4ccc(OCc5cccc(F)c5)c(Cl)c4)c3c2)o1 [Lapatinib] + NC1(c2ccc(-c3nc4ccn5c(=O)[nH]nc5c4cc3-c3ccccc3)cc2)CCC1 [MK-2206] (first compound max 10 µM, 7x7, partner max 10 µM) | 0.459 | 0.454 | 0.816 | 0.942 | 0.819 | 0.981 | 0.946 | 0.855 | 0.602 | 0.589 | 0.351 | 0.633 | 0.888 | 0.851 | 0.918 | 0.785 | 0.97 | 0.674 | 0.909 | 0.687 | 0.0395 | -0.0083 | -0.0159 | 0.0176 | 0.0147 | -0.0298 | 0.0377 | -0.0093 | -0.0367 | -0.0342 | -0.0155 | 0.0106 | 0.0323 | -0.004 | -0.0209 | 0.0243 | 0.0341 | 0.0569 | 0.0301 | -0.0445
Cc1nc(-c2cn3c(n2)-c2ccc(-c4cnn(C(C)(C)C(N)=O)c4)cc2OCC3)n(C(C)C)n1 [Taselisib] + O=C(Nc1ccc2[nH]nc(-c3ccncc3)c2c1)[C@@H]1CCN(CC(=O)N2CCN(c3ccc(-c4ncccn4)cc3)CC2)C1 [SCH772984] (first compound max 10 µM, 7x7, partner max 5 µM) | 0.756 |  |  | 0.263 | 0.681 | 0.706 | 0.611 | 0.951 | 0.53 |  | 0.372 | 0.747 | 0.999 | 0.84 | 0.474 | 0.966 | 0.77 | 0.728 | 0.563 | 0.451 | 0.0781 |  |  | 0.0266 | 0.177 | -0.0418 | 0.14 | 0.0394 | 0.0488 |  | 0.0096 | 0.0556 | 0.172 | 0.117 | 0.0023 | 0.0818 | 0.0604 | 0.106 | 0.0216 | 0.0966
CC1(C)CCC(CN2CCN(c3ccc(C(=O)NS(=O)(=O)c4ccc(NCC5CCOCC5)c([N+](=O)[O-])c4)c(Oc4cnc5[nH]ccc5c4)c3)CC2)=C(c2ccc(Cl)cc2)C1 [Venetoclax] + CS(=O)(=O)CCNCc1ccc(-c2ccc3ncnc(Nc4ccc(OCc5cccc(F)c5)c(Cl)c4)c3c2)o1 [Lapatinib] (first compound max 1 µM, 7x7, partner max 10 µM) | 0.136 |  |  | 0.855 | 0.36 | 0.934 | 0.81 | 0.237 | 0.451 |  | 0.174 | 0.185 | 0.254 | 0.506 | 0.532 | 0.345 | 0.381 | 0.348 | 0.162 | 0.397 | -0.0168 |  |  | 0.0434 | 0.0557 | -0.0246 | -0.0268 | -0.0897 | -0.0039 |  | -0.0651 | -0.0498 | -0.0591 | -0.0229 | -0.005 | -0.0311 | -0.0215 | 0.0039 | -0.0271 | -0.0303
